Activity calls are given as the source filed them. The rule behind the calls is not given here.
Columns and labels:
[1] = biological target: T1, Bifunctional epoxide hydrolase 2 (Homo sapiens, UniProt P34913); experiment: Inhibition of recombinant human full length sEH assessed as reduction in 6-methoxy-2-naphthaldehyde formation using PHOME as substrate preincubated for 30 to 45 mins followed by substrate addition and measured after 30 to 45 mins by fluorescence assay
T1 sequence (P34913 whole entry): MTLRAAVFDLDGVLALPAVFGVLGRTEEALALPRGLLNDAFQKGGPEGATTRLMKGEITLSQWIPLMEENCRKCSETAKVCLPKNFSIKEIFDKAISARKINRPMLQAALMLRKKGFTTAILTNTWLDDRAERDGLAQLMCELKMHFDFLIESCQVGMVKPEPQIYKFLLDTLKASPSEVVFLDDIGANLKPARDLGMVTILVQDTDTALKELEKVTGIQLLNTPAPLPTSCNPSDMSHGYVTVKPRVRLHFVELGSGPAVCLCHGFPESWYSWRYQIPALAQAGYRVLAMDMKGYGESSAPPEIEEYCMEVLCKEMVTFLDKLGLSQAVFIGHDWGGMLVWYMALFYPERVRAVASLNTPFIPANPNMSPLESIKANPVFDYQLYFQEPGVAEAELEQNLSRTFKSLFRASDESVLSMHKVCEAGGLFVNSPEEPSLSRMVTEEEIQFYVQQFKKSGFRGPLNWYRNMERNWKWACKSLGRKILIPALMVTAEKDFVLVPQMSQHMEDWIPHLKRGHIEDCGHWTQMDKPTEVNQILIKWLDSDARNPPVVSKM

[2] = Drug metabolism in rat liver microsomes assessed as metabolite formation after 60 mins by UPLC-MS analysis; format: ADME, Microsome; conditions: 1 h
HepG2 [3] = experiment: Cytotoxicity agianst human HepG2 cells assessed as reduction in cell viability at 10 to 30 uM after 48 hrs by WST-1 assay; format: cell-based; conditions: hepg2, 48 h, dose 10-30 µM
HepG2 [4] = experiment: Cytotoxicity against human HepG2 cells assessed as reduction in ATP level upto 10 uM after 72 hrs by CellTiter-glo luminescence assay; format: cell-based; conditions: hepg2, 72 h
[5] = biological target: T2, Vitamin D3 receptor (Homo sapiens) (UniProt P11473); experiment: Partial agonist activity at GAL4-tagged human VDR LBD expressed in HEK293T cells at 3 uM incubated for 12 to 14 hrs by dual-Glo luciferase assay; format: cell-based; conditions: filed as partial agonist, time 12-14 hrs
T2 sequence (whole entry): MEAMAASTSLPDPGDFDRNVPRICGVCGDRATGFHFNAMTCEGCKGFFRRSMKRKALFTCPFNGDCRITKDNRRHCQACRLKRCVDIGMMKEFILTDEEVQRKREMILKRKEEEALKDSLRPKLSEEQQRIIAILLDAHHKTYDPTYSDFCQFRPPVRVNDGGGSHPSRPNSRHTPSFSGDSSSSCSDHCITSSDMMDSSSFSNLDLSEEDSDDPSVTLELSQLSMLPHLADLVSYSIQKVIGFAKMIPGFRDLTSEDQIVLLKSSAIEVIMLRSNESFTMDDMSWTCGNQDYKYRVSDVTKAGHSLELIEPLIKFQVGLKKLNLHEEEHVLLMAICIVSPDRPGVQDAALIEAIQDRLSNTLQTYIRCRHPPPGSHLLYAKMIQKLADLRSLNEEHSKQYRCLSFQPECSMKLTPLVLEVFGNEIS

[6] = biological target: T3, Nuclear receptor subfamily 1 group I member 3 (Homo sapiens, UniProt Q14994); experiment: Partial agonist activity at GAL4-tagged human CAR LBD expressed in HEK293T cells at 3 uM incubated for 12 to 14 hrs by dual-Glo luciferase assay; format: cell-based; conditions: time 12-14 hrs
T3 sequence (Q14994 whole entry): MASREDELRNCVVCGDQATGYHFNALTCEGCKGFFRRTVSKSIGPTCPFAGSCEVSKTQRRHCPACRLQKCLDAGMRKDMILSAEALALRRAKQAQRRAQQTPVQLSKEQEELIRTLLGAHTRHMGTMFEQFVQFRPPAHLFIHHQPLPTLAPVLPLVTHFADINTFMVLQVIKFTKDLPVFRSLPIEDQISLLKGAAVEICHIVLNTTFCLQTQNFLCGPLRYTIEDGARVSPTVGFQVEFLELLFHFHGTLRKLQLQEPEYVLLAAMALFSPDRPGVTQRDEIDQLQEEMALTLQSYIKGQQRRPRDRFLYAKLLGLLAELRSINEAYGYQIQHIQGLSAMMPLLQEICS

[7] = biological target: T4, Peroxisome proliferator-activated receptor gamma (Homo sapiens, UniProt P37231); experiment: Partial agonist activity at recombinant sGSF-PPARgamma (unknown origin) assessed as reduction in rosiglitazone induced CBP-1 recruitment incubated for 1 hr by HTRF competitive assay
T4 sequence (P37231 whole entry): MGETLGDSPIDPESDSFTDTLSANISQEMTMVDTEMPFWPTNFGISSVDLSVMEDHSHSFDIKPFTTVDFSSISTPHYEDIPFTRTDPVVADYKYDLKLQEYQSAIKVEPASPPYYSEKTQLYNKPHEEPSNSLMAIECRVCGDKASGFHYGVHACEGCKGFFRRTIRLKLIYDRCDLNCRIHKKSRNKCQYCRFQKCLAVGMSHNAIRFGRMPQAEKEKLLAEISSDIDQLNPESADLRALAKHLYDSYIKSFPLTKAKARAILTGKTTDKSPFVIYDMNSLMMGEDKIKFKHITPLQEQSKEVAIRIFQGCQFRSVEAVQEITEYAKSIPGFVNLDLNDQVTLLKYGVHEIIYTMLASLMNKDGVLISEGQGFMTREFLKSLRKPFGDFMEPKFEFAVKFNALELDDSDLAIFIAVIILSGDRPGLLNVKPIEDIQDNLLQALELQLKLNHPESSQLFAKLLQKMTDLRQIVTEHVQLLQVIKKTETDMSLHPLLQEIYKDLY

HepG2 [8] = experiment: Cytotoxicity agianst human HepG2 cells assessed as reduction in cell viability at 30 uM after 48 hrs by WST-1 assay; format: cell-based; conditions: hepg2, 48 h
HepG2 [9] = experiment: Induction of cell proliferation in human HepG2 cells; format: functional, cell-based; conditions: dose 2.5-100 µM

SMILES	IC50 [1] [nM]	Drug metabolism [2]	Activity (HepG2 [3])	Activity (HepG2 [4])	Activity [5]	Activity [6]	IC50 [7] [nM]	Activity (HepG2 [8])	Activity (HepG2 [9])
CS(=O)(=O)Nc1ccc(CNC(=O)c2ccc3c(ccn3Cc3cccc(F)c3)c2)c(C(F)(F)F)c1	5	Metabolite_Detected	Toxic	Non-Toxic	Active	Active	1620	–	–
O=C(NCc1ccc(NS(=O)(=O)C2CC2)cc1C(F)(F)F)c1ccc2c(ccn2Cc2cccc(F)c2)c1	–	–	–	Non-Toxic	Active	Active	–	Non-Toxic	Dose-dependent effect
